From PubChem BioAssay (NCI) come the findings set out here.

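1) Cells in 96-well plates. 2) Compound, 48 h, 5 concentrations. 3) Linear interpolation between surrounding doses. 4) Unreached endpoint = highest concentration. The concentration for 50% growth inhibition is given as GI50. At the TGI there is no net growth.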 A value given as a limit tells only on which side of the number the result lay.

The first test concerns MALME-3M melanoma. As to the kind of experiment: inhibition of tumour cell growth, NCI panel, 48 h.
Regarding `CCCCCCCC(=O)SCC/C=C/[C@@H]1CC(=O)NCc2cc(ccn2)C2=N[C@@](C)(CS2)C(=O)N[C@@H](C(C)C)C(=O)O1`, the GI50 is 0.00864 µM and the TGI is over 33.3 µM.

As for `CSc1nc(NC2OCC(OC(C)=O)C(OC(C)=O)C2OC(C)=O)c(N=CC=Nc2c(NC3OCC(OC(C)=O)C(OC(C)=O)C3OC(C)=O)nc(SC)[nH]c2=O)c(=O)[nH]1` (stereo unspecified), the TGI is over 100 µM.

Take `Cn1cnc([N+](=O)[O-])c1Sc1nc2ccccc2[nH]1`: the TGI was 35 µM.

Turning to `N#CC(C#N)=CNC(N)=S`, the TGI is over 100 µM.

Consider `C[C@@H]1CCC2[C@@H](C)[C@@H](OCC(CO[C@H]3OC4O[C@@]5(C)CC[C@H]6[C@H](C)CCC([C@H]3C)[C@@]46OO5)OC(=O)CCC(=O)O)OC3O[C@@]4(C)CC[C@@H]1[C@]32OO4` (stereo partly specified), for which the GI50 was under 0.01 µM and the TGI is 12.4 µM.

In turn, `COc1cc(OC)cc(-c2cc(=O)c3c(OC)c(OC)c(OC)c(OC)c3o2)c1` returned a TGI of over 100 µM.

`COc1cc2c(c(OC)c1OC)-c1ccc(OC)c(=O)cc1C(NC(=O)c1ccc(N=[N+]=[N-])cc1)CC2` (stereo unspecified) yielded a TGI of over 100 µM.

For the compound `O=C(/C=C\c1ccc(Cl)c(Cl)c1)c1ccc(Cl)cc1Cl`, the TGI came out at 35.5 µM.

In the case of `CCOC(=O)C(=C=C=C(c1ccccc1)c1ccccc1)C(=O)OCC`, the TGI came to 40.2 µM.

`c1ccc(COc2cccc3ccc[n+](Cc4ccccc4)c23)cc1` gave a TGI of 19.9 µM.

The compound `CC(C)=Cc1cc(C(=O)Nc2ccc(Cl)c(Cl)c2)nc(N)n1` registered a TGI of over 100 µM.

Take `COc1cccc(-c2nc(-c3ccc(NC(=O)C(C)C)cc3)[nH]c2-c2ccnc(Br)c2)c1`: the GI50 was 2.65 µM and the TGI came out at 9.26 µM.

As to `O=C(CSc1ccc(Cl)cc1)Nc1ccc(-c2nc3ccccc3s2)c(Cl)c1`, the GI50 is 4.77 µM and the TGI was found to be 36.2 µM.

Another test has as its system SK-MEL-28 melanoma. Kind of test: inhibition of tumour cell growth, NCI panel, 48 h.
With `CN(C(=O)c1ccc(C(F)(F)F)cc1)c1ccc(Oc2ccc3c(c2)cc(C(=O)N2CCN(Cc4ccc(OC(F)F)cc4)CC2)n3C)nc1`, the GI50 is 63.2 µM and the TGI was over 100 µM.

Regarding `Nc1ncnc2c1nnn2C1OC(CO)C(O)C1O` (stereo unspecified), the TGI came out at 14.9 µM.

Regarding `CN1CCN(CCCn2c(=O)c3sc4ncccc4c3n3nnc(-c4ccccc4)c23)CC1`, the GI50 was 8.73 µM and the TGI was 15.8 µM.

Compound `CC(=O)OC1COC(n2ccc3cc(Br)c([N+](=O)[O-])cc32)C(OC(C)=O)C1OC(C)=O` (stereo unspecified) had a TGI of over 100 µM.

Turning to `NC1(C(=O)OCc2ccccc2)CCCC1`, the TGI worked out at 48.7 µM.

As to `O=C(/C=C/c1ccc(Cl)cc1)c1ccc(Nc2ccnc3cc(Cl)ccc23)cc1`, the GI50 is 31.9 µM and the TGI was over 100 µM.

With `CCCCCCCC(=O)SCC/C=C/[C@@H]1CC(=O)NCc2cc(ccn2)C2=N[C@@](C)(CS2)C(=O)N[C@@H](C(C)C)C(=O)O1`, the GI50 was 0.0125 µM and the TGI was determined as 1.02 µM.

Compound `CSc1nc(NC2OCC(OC(C)=O)C(OC(C)=O)C2OC(C)=O)c(N=CC=Nc2c(NC3OCC(OC(C)=O)C(OC(C)=O)C3OC(C)=O)nc(SC)[nH]c2=O)c(=O)[nH]1` (stereo unspecified) had a TGI of over 100 µM.

In the case of `Cn1cnc([N+](=O)[O-])c1Sc1nc2ccccc2[nH]1`, the TGI was determined as 26.1 µM.

The compound `N#CC(C#N)=CNC(N)=S` came in with a TGI of over 100 µM.

On to `C[C@@H]1CCC2[C@@H](C)[C@@H](OCC(CO[C@H]3OC4O[C@@]5(C)CC[C@H]6[C@H](C)CCC([C@H]3C)[C@@]46OO5)OC(=O)CCC(=O)O)OC3O[C@@]4(C)CC[C@@H]1[C@]32OO4` (stereo partly specified), for which the GI50 was 11.4 µM and the TGI is over 47.4 µM.

In turn, `COc1cc(OC)cc(-c2cc(=O)c3c(OC)c(OC)c(OC)c(OC)c3o2)c1` came in with a TGI of over 100 µM.

Compound `COc1cc2c(c(OC)c1OC)-c1ccc(OC)c(=O)cc1C(NC(=O)c1ccc(N=[N+]=[N-])cc1)CC2` (stereo unspecified) showed a TGI of over 100 µM.

Compound `CCOC(=O)C(=C=C=C(c1ccccc1)c1ccccc1)C(=O)OCC` registered a TGI of 36.8 µM.

With `c1ccc(COc2cccc3ccc[n+](Cc4ccccc4)c23)cc1`, the TGI was 25.4 µM.

`CC(C)=Cc1cc(C(=O)Nc2ccc(Cl)c(Cl)c2)nc(N)n1`: the TGI was over 100 µM.

`COc1cccc(-c2nc(-c3ccc(NC(=O)C(C)C)cc3)[nH]c2-c2ccnc(Br)c2)c1`: the GI50 was 2.78 µM and the TGI is over 100 µM.

Take `O=C(CSc1ccc(Cl)cc1)Nc1ccc(-c2nc3ccccc3s2)c(Cl)c1`: the GI50 was 6.31 µM and the TGI is 46.4 µM.

A further test relates to NCI-H522 lung. As to the kind of experiment: inhibition of tumour cell growth, NCI panel, 48 h.
For the compound `CN(C(=O)c1ccc(C(F)(F)F)cc1)c1ccc(Oc2ccc3c(c2)cc(C(=O)N2CCN(Cc4ccc(OC(F)F)cc4)CC2)n3C)nc1`, the GI50 is 0.677 µM and the TGI is over 90 µM.

`COc1ccc(S(=O)(=O)NNS(C)(=O)=O)cc1` returned a TGI of over 100 µM.

On to `Nc1ncnc2c1nnn2C1OC(CO)C(O)C1O` (stereo unspecified), for which the TGI was 4.51 µM.

Regarding `CN1CCN(CCCn2c(=O)c3sc4ncccc4c3n3nnc(-c4ccccc4)c23)CC1`, the GI50 is 7.23 µM and the TGI is 14.4 µM.

In the case of `NC1(C(=O)OCc2ccccc2)CCCC1`, the TGI came to 42.6 µM.

In the case of `O=C(/C=C/c1ccc(Cl)cc1)c1ccc(Nc2ccnc3cc(Cl)ccc23)cc1`, the GI50 is over 100 µM and the TGI was over 100 µM.

For the compound `CCCCCCCC(=O)SCC/C=C/[C@@H]1CC(=O)NCc2cc(ccn2)C2=N[C@@](C)(CS2)C(=O)N[C@@H](C(C)C)C(=O)O1`, the GI50 was 0.00721 µM and the TGI was determined as 0.204 µM.

The compound `CSc1nc(NC2OCC(OC(C)=O)C(OC(C)=O)C2OC(C)=O)c(N=CC=Nc2c(NC3OCC(OC(C)=O)C(OC(C)=O)C3OC(C)=O)nc(SC)[nH]c2=O)c(=O)[nH]1` (stereo unspecified) displayed a TGI of over 83.8 µM.

`N#CC(C#N)=CNC(N)=S` had a TGI of over 100 µM.

Turning to `C[C@@H]1CCC2[C@@H](C)[C@@H](OCC(CO[C@H]3OC4O[C@@]5(C)CC[C@H]6[C@H](C)CCC([C@H]3C)[C@@]46OO5)OC(=O)CCC(=O)O)OC3O[C@@]4(C)CC[C@@H]1[C@]32OO4` (stereo partly specified), the GI50 was 0.0628 µM and the TGI was determined as 15.4 µM.

`COc1cc(OC)cc(-c2cc(=O)c3c(OC)c(OC)c(OC)c(OC)c3o2)c1`: the TGI was 51.1 µM.

`COc1cc2c(c(OC)c1OC)-c1ccc(OC)c(=O)cc1C(NC(=O)c1ccc(N=[N+]=[N-])cc1)CC2` (stereo unspecified) registered a TGI of 0.0387 µM.

`O=C(/C=C\c1ccc(Cl)c(Cl)c1)c1ccc(Cl)cc1Cl`: the TGI worked out at 32.6 µM.

Consider `c1ccc(COc2cccc3ccc[n+](Cc4ccccc4)c23)cc1`, for which the TGI came to 8.02 µM.

Regarding `COc1cccc(-c2nc(-c3ccc(NC(=O)C(C)C)cc3)[nH]c2-c2ccnc(Br)c2)c1`, the GI50 is 2.8 µM and the TGI is over 100 µM.

Another test deals with OVCAR-3 ovarian. As to the kind of experiment: inhibition of tumour cell growth, NCI panel, 48 h.
As to `CN(C(=O)c1ccc(C(F)(F)F)cc1)c1ccc(Oc2ccc3c(c2)cc(C(=O)N2CCN(Cc4ccc(OC(F)F)cc4)CC2)n3C)nc1`, the GI50 was 11.3 µM and the TGI was over 100 µM.

Turning to `Nc1ncnc2c1nnn2C1OC(CO)C(O)C1O` (stereo unspecified), the TGI is 9.26 µM.
